According to patent US7314940B2, “Jun kinase inhibitors” (Eisai Co., Ltd., priority 2001, dated 2008):

Key:
Format in all cases: biochemical
JNK3 = JNK3 (Homo sapiens, UniProt P53779); assay: JNK3 SPA assay; settings: phosphorylation of GST-c-Jun, 3.33 μM ATP
Description: (§1) JNK1, JNK2, JNK3—SPA Assay
(§2) • 1. Compound is dissolved in DMSO to a convenient concentration and this is diluted in 10% DMSO to a five times concentrate of the desired starting concentration (frequently 1: 100). • 2. 10 μl of 500 mM EDTA is added to alternative wells of the Opti-plate row, which will receive kinase reaction plus DMSO. This creates the negative control. • 3. For the JNK2 and JNK3 assay, compounds are prepared in six 2-fold dilutions with water and each concentration is tested in duplicate. For the JNK1 assay compounds are prepared in four 5-fold dilutions with water which are tested in triplicate. Controls are treated identically. • 4. 20 μl per well of each compound concentration is transferred to an Opti-plate, in duplicate. • 5. 30 μl (JNK2/3 SPA) or 50 μl (JNK1 SPA) of substrate solution (25 mM HEPES pH 7.5, 10 mM magnesium acetate with 3.33 μM ATP (JNK2/3) or 2 μM ATP (JNK1), approximately 7.5 kBq [γ-^33P] ATP, GST-c-Jun, in water) is added to each well. • 6. 50 μl (JNK2/3 SPA) or 30 gl (JNK1 SPA) of kinase solution (JNK in 25 mM HEPES pH 7.5, 10 mM Mg Acetate) is added to each well.
(§3) • 7. The plate is incubated for 30 minutes at room temperature. • 8. 100 μl of bead/stop solution is added to each well (5 mg/ml glutathione-PVT-SPA beads, 40 mM ATP in PBS). • 9. Plates are sealed and incubated for 30 minutes at room temperature, centrifuged for 10 minutes at 2500 g and counted. • 10. The IC50 values are calculated as the concentration of the compound being tested at which the phosphorylation of c-Jun is decreased to 50% of the control value.

JNK2 = JNK2 (Homo sapiens, UniProt P45984); assay: JNK2 SPA assay; settings: phosphorylation of GST-c-Jun, 3.33 μM ATP
Description: as §1, §2, §3

JNK1 = JNK1 (Homo sapiens, UniProt P45983); assay: JNK1 SPA assay; settings: phosphorylation of GST-c-Jun, 2 μM ATP
Description: as §1, §2, §3

p38 MAP kinase = molecular target: T1, p38 MAP kinase (Homo sapiens, UniProt Q16539); assay: p38 ELISA; settings: phosphorylation of GST-ATF2, 50 μM ATP
T1 construct: purchased Upstate
Description: Active p38 kinase (100 ng; Upstate) was added to 2 μg GST-ATF2 substrate (NEB) in 250 mM Hepes pH 7.5/100 mM MgAc/50 μM ATP (final) in the presence or absence of compounds in 50 μl. The mixture was incubated at 30° C. for 1 hour, and then diluted with 200 μl PBS-Tween (0.05%). From this, duplicate volumes of 100 μl were added to a Reacti-Bind glutathione coated plate (Pierce) and incubated for 1 hour. After washing 3 times with PBS-Tween (0.05%), rabbit anti-phospho-ATF2 (Thr71) antibody (NEB) was added at 1:500, and incubated for another hour at room temperature. After 3 additional washes with PBS-Tween (0.05%), 100 μl of anti-rabbit IgG alkaline phosphatase-conjugated secondary antibody (Sigma) was added at 1:1000, the reaction was incubated for a further hour, washed 3 times, and then phosphatase substrate (Sigma) was added (100 μl per well; 3 tablets in 5 ml water). After incubation in the dark at 37° C. for 1 hour, the reaction mixture was transferred to a clear 96 well plate, and the absorbance at 405 nm was read. The IC50 values are calculated as the concentration of the compound being tested at which the phosphorylation of ATF2 is decreased to 50% of the control value.

Chain of JNK3 (P53779 whole entry): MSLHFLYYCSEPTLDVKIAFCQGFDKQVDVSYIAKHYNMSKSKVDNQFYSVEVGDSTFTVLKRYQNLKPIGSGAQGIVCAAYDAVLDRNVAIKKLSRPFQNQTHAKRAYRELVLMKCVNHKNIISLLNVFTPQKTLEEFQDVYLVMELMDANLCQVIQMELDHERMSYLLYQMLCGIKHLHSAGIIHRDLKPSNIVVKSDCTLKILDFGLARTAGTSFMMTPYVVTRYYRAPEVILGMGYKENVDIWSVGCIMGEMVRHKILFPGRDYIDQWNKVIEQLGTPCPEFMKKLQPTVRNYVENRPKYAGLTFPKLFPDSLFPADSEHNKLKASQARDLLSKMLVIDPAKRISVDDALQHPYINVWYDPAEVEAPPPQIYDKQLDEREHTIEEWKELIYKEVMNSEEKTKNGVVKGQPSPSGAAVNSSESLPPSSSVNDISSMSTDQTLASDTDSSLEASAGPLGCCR
Chain of JNK2 (P45984 whole entry): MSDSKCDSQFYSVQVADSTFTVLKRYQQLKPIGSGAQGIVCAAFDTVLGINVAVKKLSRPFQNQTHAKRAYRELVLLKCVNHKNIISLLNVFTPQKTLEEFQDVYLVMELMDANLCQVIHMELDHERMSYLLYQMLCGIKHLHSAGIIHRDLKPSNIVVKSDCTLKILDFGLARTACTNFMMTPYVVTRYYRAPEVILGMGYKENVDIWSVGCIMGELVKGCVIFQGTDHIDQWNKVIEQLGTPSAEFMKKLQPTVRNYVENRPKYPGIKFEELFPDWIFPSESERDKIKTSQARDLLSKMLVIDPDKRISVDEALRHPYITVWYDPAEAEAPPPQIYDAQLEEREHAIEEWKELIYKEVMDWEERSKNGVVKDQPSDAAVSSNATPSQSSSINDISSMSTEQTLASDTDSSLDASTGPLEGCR
T1 sequence (Q16539 whole entry): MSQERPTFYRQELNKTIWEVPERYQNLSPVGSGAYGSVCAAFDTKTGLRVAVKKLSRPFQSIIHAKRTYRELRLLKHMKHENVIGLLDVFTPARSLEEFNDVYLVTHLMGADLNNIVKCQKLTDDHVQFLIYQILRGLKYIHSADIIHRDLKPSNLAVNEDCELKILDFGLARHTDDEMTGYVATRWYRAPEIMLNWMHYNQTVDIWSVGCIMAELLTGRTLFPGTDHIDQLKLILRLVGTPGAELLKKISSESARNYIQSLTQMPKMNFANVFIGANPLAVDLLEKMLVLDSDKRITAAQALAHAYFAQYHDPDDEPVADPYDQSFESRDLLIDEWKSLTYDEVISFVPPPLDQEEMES
Chain of JNK1 (P45983 whole entry): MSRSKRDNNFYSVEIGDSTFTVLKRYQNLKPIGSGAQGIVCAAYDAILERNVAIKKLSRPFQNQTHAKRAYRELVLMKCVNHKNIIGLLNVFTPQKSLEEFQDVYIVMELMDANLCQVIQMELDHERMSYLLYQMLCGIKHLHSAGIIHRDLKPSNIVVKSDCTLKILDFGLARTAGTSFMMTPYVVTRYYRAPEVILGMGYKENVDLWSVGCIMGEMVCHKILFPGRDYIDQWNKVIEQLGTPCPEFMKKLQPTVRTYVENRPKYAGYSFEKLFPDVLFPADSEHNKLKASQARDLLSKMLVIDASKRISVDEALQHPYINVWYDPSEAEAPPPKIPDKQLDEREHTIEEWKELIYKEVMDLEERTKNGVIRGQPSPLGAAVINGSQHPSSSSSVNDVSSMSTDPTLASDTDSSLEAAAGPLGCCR

SMILES | IC50 (JNK3) | IC50 (JNK2) | IC50 (JNK1) | IC50 (p38 MAP kinase)
CCCNc1nccc(-c2c(-c3ccc(F)cc3)nc3n2[C@H](COc2ccc4ccccc4n2)CC3)n1 | 88 nM | 52 nM | 183 nM | 270 nM
CCCNc1nccc(-c2c(-c3ccc(F)cc3)nc3n2[C@@H](COc2ccc4ccccc4n2)CC3)n1 | 295 nM |  |  | 
CCCNc1nccc(-c2c(-c3ccc(F)cc3)nc3n2[C@H](Cn2ccc4ccccc42)CC3)n1 | 91 nM | 250 nM | 636 nM | 619 nM
CCCNc1nccc(-c2c(-c3ccc(F)cc3)nc3n2[C@@H](Cn2ccc4ccccc42)CC3)n1 | 150 nM |  |  | 
CCNc1nccc(-c2c(-c3ccc(F)cc3)nc3n2[C@H](Cn2ccc4cccc(F)c42)CC3)n1 | 61 nM | 125 nM | 125 nM | 696 nM
CCNc1nccc(-c2c(-c3ccc(F)cc3)nc3n2[C@H](COc2ncccn2)CC3)n1 | 29 nM | 125 nM | 313 nM | 185 nM
O=C(NC[C@@H]1CCc2nc(-c3ccc(F)cc3)c(-c3ccnc(NC4CCC4)n3)n21)c1ccccc1 | 54 nM | 83 nM | 412 nM | 
Fc1ccc(-c2nc3n(c2-c2ccnc(NC4CCC4)n2)[C@H](COc2ccnc4ccccc24)CC3)cc1 | 71 nM | 114 nM | 249 nM | 
CCNc1nccc(-c2c(-c3ccc(F)cc3)nc3n2[C@H](COc2ccc4cccc([N+](=O)[O-])c4n2)CC3)n1 | 86 nM | 38 nM | 137 nM | 
Cc1cc(OC[C@@H]2CCc3nc(-c4ccc(F)cc4)c(-c4ccnc(NC5CCC5)n4)n32)c2ccccc2n1 | 25 nM | 30 nM | 78 nM | 
Fc1ccc(-c2nc3n(c2-c2ccnc(NC4CCC4)n2)[C@H](CNc2ccccn2)CC3)cc1 | 38 nM | 126 nM | 524 nM | 
CCNc1nccc(-c2c(-c3ccc(F)cc3)nc3n2[C@H](Cn2cccc2)CC3)n1 | 14 nM | 13 nM | 27 nM | 59 nM
Fc1ccc(-c2nc3n(c2-c2ccnc(NC4CCC4)n2)[C@H](/C=C/c2cccs2)CC3)cc1 | 53 nM |  | 248 nM | 
Fc1ccc(-c2nc3n(c2-c2ccnc(NC4CCC4)n2)[C@H](Cn2ccnc2)CC3)cc1 | 7 nM |  | 22 nM | 
Fc1ccc(SC[C@@H]2CCc3nc(-c4ccc(F)cc4)c(-c4ccnc(NC5CCC5)n4)n32)cc1 | 8 nM |  | 92 nM | 
COc1ccc(CSC[C@@H]2CCc3nc(-c4ccc(F)cc4)c(-c4ccnc(NC5CCC5)n4)n32)cc1 | 30 nM |  | 94 nM | 148 nM
Fc1ccc(-c2nc3n(c2-c2ccnc(NC4CCC4)n2)[C@H](CC2CCCC2)CC3)cc1 | 10 nM |  |  | 
CCNc1nccc(-c2c(-c3ccc(F)cc3)nc3n2[C@H](CN2C(=O)CCC2=O)CC3)n1 | 17 nM |  |  | 
O=C1CCC(=O)N1C[C@@H]1CCc2nc(-c3ccc(F)cc3)c(-c3ccnc(NC4CCC4)n3)n21 | 6 nM |  | 60 nM | 
COc1ccc(COC[C@@H]2CCc3nc(-c4ccc(F)cc4)c(-c4ccnc(NC5CCC5)c4)n32)cc1 | 23 nM |  |  | 
COc1ccc(COC[C@H]2CCc3nc(-c4ccc(F)cc4)c(-c4ccnc(NC5CCC5)c4)n32)cc1 | 301 nM |  |  | 
